This note sets out measurements from BindingDB's records for doi:10.1021/jm00129a003 (Abbott Laboratories, 1989).

Test [1] addresses T1, Gonadotropin-releasing hormone receptor (Rattus norvegicus, UniProt P30969).
T1 sequence (P30969 whole entry): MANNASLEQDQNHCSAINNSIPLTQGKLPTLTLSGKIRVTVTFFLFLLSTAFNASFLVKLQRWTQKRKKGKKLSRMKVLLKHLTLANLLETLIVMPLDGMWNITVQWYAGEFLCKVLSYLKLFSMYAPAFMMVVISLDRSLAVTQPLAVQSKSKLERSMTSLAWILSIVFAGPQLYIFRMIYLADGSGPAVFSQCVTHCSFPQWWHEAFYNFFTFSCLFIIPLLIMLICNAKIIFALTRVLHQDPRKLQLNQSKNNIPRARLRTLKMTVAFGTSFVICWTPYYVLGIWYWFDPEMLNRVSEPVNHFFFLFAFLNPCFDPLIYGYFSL
The experiment in a line: Dissociation constant was determined in vitro using rat pituitary membranes, at concentration 1.0*10e-5 M.

Test [2] concerns the target T1, Gonadotropin-releasing hormone receptor. The test is described as follows: Dissociation constant was determined in vitro using rat pituitary membranes and [125I]-leuprolide as radioligand, at concentration 3.16*10e-6 M.

As usually defined, the Kd is the free concentration of one partner at which half of the binding sites on the other are occupied at equilibrium, for simple one-to-one binding. Higher therefore signals a looser complex.

Turning to `CC(=O)N1CCN(c2ccc(OC[C@@H]3CO[C@@](Cn4ccnc4)(c4ccc(Cl)cc4Cl)O3)cc2)CC1` [Nizoral], the Kd in test [1] worked out at 375 nM; in test [2] it was 221 nM.
